Results reported in ChEMBL document CHEMBL1124940, “N-[(arylmethoxy)phenyl] carboxylic acids, hydroxamic acids, tetrazoles, and sulfonyl carboxamides. Potent orally active leukotriene D4 antagonists of novel structure” (J Med Chem, 1990).
Each block holds one molecule with its values, some of them ahead of it.

Assays:
[1] = tested on: Cavia porcellus; test: Tested for the inhibition of LTD4-induced broncho constriction in Guinea pig, injected intraduodenally at a dose of 25 mg/kg; format: functional; conditions: route intraduodenal
[2] = tested on: Cavia porcellus; test: Tested for the inhibition of ovalbumin- induced bronchoconstriction in Guinea pig, injected intragastrically. Compound dose is 25 mg/kg; format: functional; conditions: po, route intragastric
[3] = tested on: Cavia porcellus; test: Tested for the inhibition of ovalbumin- induced bronchoconstriction in Guinea pig, injected intragastrically. Compound dose is 10 mg/kg; format: functional; conditions: po, route intragastric
[4] = tested on: Cavia porcellus; test: Tested for the inhibition of LTD4-induced bronchoconstriction in Guinea pig, injected intraduodenally, dose of 3 mg/kg; format: functional; conditions: route intraduodenal
[5] = tested on: Cavia porcellus; test: Inhibition of LTD4-induced broncho constriction in Guinea pig after intragastrical administration of a dose of 3 mg/kg; format: functional; conditions: po, route intragastric
[6] = tested on: Cavia porcellus; test: Inhibition of LTD4-induced broncho constriction in Guinea pig after intragastrical administration of a dose of 25 mg/kg; format: functional; conditions: po, route intragastric
[7] = tested on: Cavia porcellus; test: Inhibition of LTD4-induced broncho constriction in Guinea pig after intraduodenal administration of a dose of 25 mg/kg; format: functional
[8] = tested on: Cavia porcellus; test: Tested for the inhibition of LTD4-induced broncho constriction in Guinea pig, compound injected intragastrically at a dose of 25 mg/kg; format: functional; conditions: po, route intragastric
[9] = tested on: Cavia porcellus; test: Inhibition of LTD4-induced broncho constriction in Guinea pig, compound injected intraduodenally at a dose of 25 mg/kg; format: functional; conditions: route intraduodenal
[10] = tested on: Cavia porcellus; test: Examined in vitro for LTD4-induced bronchoconstriction in isolated guinea pig trachea by injecting intraduodenally; format: functional; conditions: intraduodenal
[11] = tested on: Cavia porcellus; test: In vitro inhibition of ovalbumin-induced bronchoconstriction after intragastrical administration 120 min before agonist into isolated guinea pig trachea; format: functional; conditions: po
[12] = target: T1, Polyunsaturated fatty acid 5-lipoxygenase (Rattus norvegicus, UniProt P12527); test: Concentration for 50% inhibition of A-23187-stimulated radiolabeled 5-HETE and TXB2 synthesis by PMN 5-lipoxygenase; format: functional
T1 sequence (P12527 whole entry): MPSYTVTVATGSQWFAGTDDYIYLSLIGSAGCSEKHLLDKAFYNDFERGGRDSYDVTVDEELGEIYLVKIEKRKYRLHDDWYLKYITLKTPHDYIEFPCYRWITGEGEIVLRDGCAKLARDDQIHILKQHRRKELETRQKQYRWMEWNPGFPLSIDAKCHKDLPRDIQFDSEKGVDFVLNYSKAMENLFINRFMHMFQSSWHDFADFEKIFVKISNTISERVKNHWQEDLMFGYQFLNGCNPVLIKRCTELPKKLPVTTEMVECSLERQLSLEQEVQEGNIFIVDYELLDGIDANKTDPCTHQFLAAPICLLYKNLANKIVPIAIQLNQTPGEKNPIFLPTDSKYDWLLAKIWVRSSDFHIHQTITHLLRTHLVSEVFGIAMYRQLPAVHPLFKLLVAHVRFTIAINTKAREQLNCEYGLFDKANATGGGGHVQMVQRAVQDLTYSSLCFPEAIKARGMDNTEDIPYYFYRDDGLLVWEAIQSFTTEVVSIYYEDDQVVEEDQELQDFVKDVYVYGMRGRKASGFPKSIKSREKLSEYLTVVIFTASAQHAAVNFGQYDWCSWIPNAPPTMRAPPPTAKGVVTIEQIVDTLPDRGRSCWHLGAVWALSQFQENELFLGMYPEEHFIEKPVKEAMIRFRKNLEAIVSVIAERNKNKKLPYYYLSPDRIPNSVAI

[13] = tested on: Cavia porcellus; test: In vitro for inhibition of ovalbumin-induced bronchoconstriction in isolated guinea pig trachea by injecting intraduodenally; format: functional; conditions: intraduodenal
[14] = target: T2, Cyclooxygenase (Rattus norvegicus, UniProt P35355+Q63921); test: Concentration for 50% inhibition of A-23187-stimulated radiolabeled 5-HETE and TXB2 synthesis by Prostaglandin G/H synthase; format: protein assay
T2 sequence (P35355 whole entry): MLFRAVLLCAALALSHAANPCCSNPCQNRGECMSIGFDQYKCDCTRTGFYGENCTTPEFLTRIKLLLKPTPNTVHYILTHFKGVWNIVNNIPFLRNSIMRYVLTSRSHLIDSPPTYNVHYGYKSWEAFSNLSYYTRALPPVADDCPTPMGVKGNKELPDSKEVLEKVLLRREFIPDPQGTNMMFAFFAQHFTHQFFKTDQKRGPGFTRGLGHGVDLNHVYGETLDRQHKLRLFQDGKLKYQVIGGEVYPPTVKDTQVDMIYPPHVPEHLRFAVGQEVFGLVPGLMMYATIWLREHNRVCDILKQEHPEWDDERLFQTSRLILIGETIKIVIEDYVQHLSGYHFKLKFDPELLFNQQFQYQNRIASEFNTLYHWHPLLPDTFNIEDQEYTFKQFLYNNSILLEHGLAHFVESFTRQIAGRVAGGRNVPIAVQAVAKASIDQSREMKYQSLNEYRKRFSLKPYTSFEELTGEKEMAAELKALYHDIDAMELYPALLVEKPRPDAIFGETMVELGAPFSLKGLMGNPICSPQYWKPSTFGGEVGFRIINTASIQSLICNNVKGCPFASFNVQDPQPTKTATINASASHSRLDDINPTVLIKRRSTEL
T2 sequence (Q63921 whole entry): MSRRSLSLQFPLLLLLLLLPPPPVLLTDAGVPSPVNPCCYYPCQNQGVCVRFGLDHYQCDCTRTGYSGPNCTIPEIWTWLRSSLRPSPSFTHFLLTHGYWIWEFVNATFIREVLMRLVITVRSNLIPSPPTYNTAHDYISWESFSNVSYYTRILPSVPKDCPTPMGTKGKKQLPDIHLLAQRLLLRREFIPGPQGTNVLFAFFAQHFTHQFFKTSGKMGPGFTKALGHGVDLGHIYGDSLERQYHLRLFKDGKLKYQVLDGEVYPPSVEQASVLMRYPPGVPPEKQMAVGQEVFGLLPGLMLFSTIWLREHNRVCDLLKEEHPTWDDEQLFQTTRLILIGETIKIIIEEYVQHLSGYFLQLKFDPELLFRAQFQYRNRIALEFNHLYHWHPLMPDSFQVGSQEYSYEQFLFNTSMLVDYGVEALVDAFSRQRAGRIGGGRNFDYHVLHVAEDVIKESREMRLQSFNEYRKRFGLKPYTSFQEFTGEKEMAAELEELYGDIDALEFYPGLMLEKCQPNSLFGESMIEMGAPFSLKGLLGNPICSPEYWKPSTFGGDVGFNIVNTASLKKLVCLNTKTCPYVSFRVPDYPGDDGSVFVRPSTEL

[15] = tested on: Cavia porcellus; test: Dissociation constant was determined In vitro in isolated guinea pig trachea after intraduodenal administration; format: ADME, organism-based; conditions: in vivo, other
[16] = tested on: Cavia porcellus; test: In vitro inhibition of LTD4-induced bronchoconstriction after intragastrical administration 120 min before agonist into isolated guinea pig trachea; format: functional; conditions: po
[17] = tested on: Cavia porcellus; test: Inhibition of LTD4-induced broncho constriction in Guinea pig after intragastrical administration of a dose of 0.3 mg/kg; format: functional; conditions: po, route intragastric
[18] = tested on: Cavia porcellus; test: Inhibition of LTD4-induced broncho constriction in Guinea pig after intragastrical administration of a dose of 1 mg/kg; format: functional; conditions: po, route intragastric

Compound: c1ccc2nc(COc3ccc(Cc4nnn[nH]4)cc3)ccc2c1
inhibition in vivo at 25 mg/kg [1]: 88%
inhibition in vivo at 25 mg/kg [2]: 76%
inhibition in vivo at 10 mg/kg [3]: 6%
inhibition in vivo at 3 mg/kg [4]: -15%
inhibition in vivo at 3 mg/kg [5]: 4%
inhibition in vivo at 25 mg/kg [6]: 90%

Compound: O=C(Cc1cccc(OCc2ccc3ccccc3n2)c1)NO
inhibition in vivo at 25 mg/kg [1]: < 14%

Compound: O=C(NOCc1ccccc1)c1cccc(OCc2ccc3ccccc3n2)c1
inhibition in vivo at 25 mg/kg [7]: < 71%
inhibition in vivo at 25 mg/kg [6]: < -14%

Compound: O=C(O)CCc1cccc(OCc2ccc3ccccc3n2)c1
inhibition in vivo at 25 mg/kg [6]: < 75%

Compound: CON(C)C(=O)Cc1cccc(OCc2ccc3ccccc3n2)c1
inhibition in vivo at 25 mg/kg [6]: 93%

Compound: O=C(O)Cc1cccc(OCc2ccc3ccccc3n2)c1
inhibition in vivo at 25 mg/kg [8]: < 99%

Compound: COC(=O)Cc1cccc(OCc2nc3ccccc3s2)c1
inhibition in vivo at 25 mg/kg [9]: < 65%
inhibition in vivo at 25 mg/kg [6]: < 33%

IC50 [12]: 2000 nM
IC50 [14]: 9100 nM
pKb [15]: 7.7
Compound: O=S(=O)(Nc1cccc(OCc2ccc3ccccc3n2)c1)C(F)(F)F [RITOLUKAST]
ED50 [10]: 0.3 mg/kg
ED50 [11]: 0.6 mg/kg
ED50 [13]: 3 mg/kg
ED50 [16]: 0.1 mg/kg

Compound: c1ccc(-c2nn[nH]n2)c(OCc2ccc3ccccc3n2)c1
inhibition in vivo at 25 mg/kg [1]: < 31%

Compound: CONC(=O)CCc1cccc(OCc2ccc3ccccc3n2)c1
inhibition in vivo at 3 mg/kg [5]: 5%
inhibition in vivo at 25 mg/kg [6]: 86%

Compound: c1cc(OCc2ccc3ccccc3n2)cc(-c2nn[nH]n2)c1
inhibition in vivo at 25 mg/kg [1]: 90%
inhibition in vivo at 3 mg/kg [5]: 13%
inhibition in vivo at 25 mg/kg [6]: < 89%

Compound: c1cc(Cc2nnn[nH]2)cc(OCc2ncc3ccccc3n2)c1
inhibition in vivo at 25 mg/kg [1]: < 77%

Compound: O=C(NS(=O)(=O)c1ccccc1)c1cccc(OCc2ccc3ccccc3n2)c1
inhibition in vivo at 0.3 mg/kg [17]: < 12%
inhibition in vivo at 1 mg/kg [18]: < 82%
